Source: the METLIN SMRT retention time set (Domingo-Almenara et al. 2019)

Assay: gradient 5% acetonitrile 3 min, to 50% in 2 min, to 85% in 15 min, held 3 min, 100 µL/min
Settings: column: Zorbax Extend-C18 2.1 x 50 mm; eluents: water / acetonitrile, 0.1% formic acid
Outline: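 Standards, all pure, were combined into mixtures of ~100 molecules and run at 100 μL/min on a Zorbax Extend-C18 column (2.1 × 50 mm, 1.8 μm) with water and acetonitrile, each containing 0.1% formic acid. A coupled quadrupole time-of-flight mass spectrometer operated in positive and negative ionization mode. Retention time values come from computationally picked adduct peaks, each inspected manually.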

**Q.** For CC(=O)N1CCc2c([nH]c3ccccc23)C12C(=O)N(CC(C)C)c1ccc(Br)cc12 (centres undefined), which RP-LC retention time is on record?
**A.** 974 s

**Q.** With CCOC(=O)c1c(C)[nH]c(C(=O)N2CCCC(C(=O)NCc3ccccc3C)C2)c1C (centres undefined) as the molecule, how does the RP-LC retention time read?
**A.** 814 s

**Q.** With COCCN(CC1(C)CCOCC1)C(=O)NCc1ccc(F)cc1 as the molecule, how does the RP-LC retention time read?
**A.** 752 s

**Q.** For c1ccc(-c2nc(-c3cnccn3)no2)c(OC2CCNC2)c1 (centres undefined), which RP-LC retention time is on record?
**A.** 615 s

**Q.** With COCCN1CC2(CCN(S(=O)(=O)c3ccc(F)cc3F)CC2)C1c1ccncc1 (centres undefined) as the molecule, how does the RP-LC retention time read?
**A.** 623 s

**Q.** For Cc1nc(C)c(C(=O)NCC23CCCC=C2N(C)C(=O)CC3)s1 (centres undefined), which RP-LC retention time is on record?
**A.** 682 s

**Q.** For CC(C)c1noc(-c2cc(=O)n(CC(=O)Nc3cccc(C#N)c3)c3ccccc23)n1, which RP-LC retention time is on record?
**A.** 967 s

**Q.** For O=C(Cc1csc(-c2ccccc2)n1)NCc1nc2ccccc2[nH]1, which RP-LC retention time is on record?
**A.** 647 s

**Q.** Which RP-LC retention time does the source give for Cc1cc(C)c(C(=O)N2CCCC(C(=O)N3CCN(c4cccc(Cl)c4)CC3)C2)[nH]1 (centres undefined) here?
**A.** 953 s

**Q.** For CC(C)(C)NC(=O)CN1c2ccc(F)cc2-c2ccccc2S1(=O)=O, which RP-LC retention time is on record?
**A.** 905 s

**Q.** For O=C(Cn1cncn1)N1CCC(c2nnc(C(F)(F)F)o2)CC1, which RP-LC retention time is on record?
**A.** 588 s

**Q.** Which RP-LC retention time does the source give for O=C(NC1CCS(=O)(=O)C1)c1ccc(C(=O)c2ccccc2)cc1 (centres undefined) here?
**A.** 675 s

**Q.** Which RP-LC retention time does the source give for CCCCc1ccc(N2C(=O)C3N=NN(Cc4nc(-c5ccc(Cl)cc5)no4)C3C2=O)cc1 (centres undefined) here?
**A.** 1280 s

**Q.** Which RP-LC retention time does the source give for Cc1csc(-c2ccc(N3CCN(C(=O)c4ccc(F)c(F)c4)CC3)nc2)n1 here?
**A.** 846 s

**Q.** Which RP-LC retention time does the source give for O=C(Nc1ccc2c(c1)OCCO2)N1CCC2(CC1)CC(N1CCOCC1)CCO2 (centres undefined) here?
**A.** 572 s

**Q.** Which RP-LC retention time does the source give for COc1ccc(-c2noc(-c3ccc(=O)n(Cc4c(F)cccc4Cl)c3)n2)cc1 here?
**A.** 1010 s

**Q.** Which RP-LC retention time does the source give for Cc1ccc(-c2ccc(N3CCCC(C(=O)N4CCCC4)C3)nn2)cc1 (centres undefined) here?
**A.** 647 s

**Q.** Which RP-LC retention time does the source give for Clc1ccc(Cn2c(CN3CCCC3)nc3ccccc32)cc1 here?
**A.** 750 s

**Q.** With O=c1c(=O)n(-c2ccccc2)ccn1Cc1nc(-c2ccc(F)c(Cl)c2)no1 as the molecule, how does the RP-LC retention time read?
**A.** 894 s

**Q.** For CC(C)c1ccc(-n2nc(N3CCN(C(=O)c4ccco4)CC3)ccc2=O)cc1, which RP-LC retention time is on record?
**A.** 842 s

**Q.** For COc1ccc(Cl)cc1NC(=O)N1CCCC1c1nc(-c2ccccc2OC)no1 (centres undefined), which RP-LC retention time is on record?
**A.** 1010 s

**Q.** For Cc1ccc(-c2nc(-c3cccc(-c4ccn[nH]4)c3)no2)cc1C, which RP-LC retention time is on record?
**A.** 1150 s

**Q.** For COc1ccc(-c2nc(-n3c(C)c4c(C)nnc(C)c4c3C)sc2C)cc1, which RP-LC retention time is on record?
**A.** 726 s

**Q.** With CC(CCc1ccccc1)NC(=O)CCc1c(-c2ccc(Cl)cc2)nc2ccccn12 (centres undefined) as the molecule, how does the RP-LC retention time read?
**A.** 774 s

**Q.** Which RP-LC retention time does the source give for Cc1oc(C2CCN(C(=O)NCc3cccc(F)c3)CC2)nc1C(=O)N1CCOCC1 here?
**A.** 903 s

**Q.** Which RP-LC retention time does the source give for CCCN1CCN(c2cc(C(=O)O)c3cc(NC(=O)c4ccc(F)cc4)ccc3n2)CC1 here?
**A.** 888 s

**Q.** With CCN(Cc1ccccc1)C(=O)C1CCN(S(=O)(=O)c2ccc3c(c2)NC(=O)CO3)CC1 as the molecule, how does the RP-LC retention time read?
**A.** 852 s

**Q.** With CN(C(=O)Cn1nc(Cc2ccncc2)c2ccccc2c1=O)C1CCCCC1 as the molecule, how does the RP-LC retention time read?
**A.** 640 s

**Q.** With COCCN1C(=O)[C@H]2CN(Cc3cccc(Cl)c3F)C[C@H]2C1=O as the molecule, how does the RP-LC retention time read?
**A.** 685 s

**Q.** Which RP-LC retention time does the source give for CCOC(=O)c1ccc(NS(=O)(=O)c2cc(-c3c(CC)noc3NC(C)=O)ccc2OC)cc1 here?
**A.** 805 s

**Q.** For CCC(C)NC(=O)C1c2ccccc2CC(=O)N1C (centres undefined), which RP-LC retention time is on record?
**A.** 658 s

**Q.** For O=C(Nc1ccc(F)cc1F)N1CCc2nc(-c3ccc(F)cc3)ncc2C1, which RP-LC retention time is on record?
**A.** 932 s

**Q.** Which RP-LC retention time does the source give for O=C1NCCCn2cc(S(=O)(=O)N3CCN(Cc4ccccc4)CC3)cc21 here?
**A.** 758 s

**Q.** For Cc1nnc(NC(=O)Cc2csc(SCC(=O)c3ccc(F)cc3)n2)s1, which RP-LC retention time is on record?
**A.** 724 s

**Q.** For Cc1cc(C(=O)Nc2nnc(-c3cccs3)o2)no1, which RP-LC retention time is on record?
**A.** 632 s

**Q.** With CN(C1CCC1)C1CCc2nn(Cc3ccccc3)c(=O)n2CC1 (centres undefined) as the molecule, how does the RP-LC retention time read?
**A.** 590 s

**Q.** Which RP-LC retention time does the source give for COc1ccc(NC(=O)Cn2cnc3c(sc4nc(-c5ccccc5)ccc43)c2=O)cc1OC here?
**A.** 899 s

**Q.** Which RP-LC retention time does the source give for COc1ccccc1N1CCN(c2cc(SCC(=O)Nc3ccc(C(C)C)cc3)ncn2)CC1 here?
**A.** 1140 s

**Q.** For CCOC(=O)c1c(C)n(C)c2ccc(OCC(O)CN3CCOCC3)cc12 (centres undefined), which RP-LC retention time is on record?
**A.** 630 s

**Q.** With COc1cccc(Nc2c(-c3cccc(O)c3)nc3cnccn23)c1 as the molecule, how does the RP-LC retention time read?
**A.** 929 s

**Q.** For Cc1ccc(-n2ncc3c(=O)n(Cc4nc(-c5ccc(F)c(Br)c5)no4)cnc32)cc1, which RP-LC retention time is on record?
**A.** 1220 s

**Q.** With O=C(Nc1ccc(Cl)cc1)C(=O)c1c[nH]c2ccccc12 as the molecule, how does the RP-LC retention time read?
**A.** 1030 s

**Q.** For CCOC(=O)N1CCN(Cc2nc(-c3ccc(N4CCCCC4)nc3)no2)CC1, which RP-LC retention time is on record?
**A.** 757 s

**Q.** For COc1ccc(Cl)cc1NC(=O)C1(C)Oc2cccnc2NC1=O (centres undefined), which RP-LC retention time is on record?
**A.** 798 s
